Assays:
[1] = Contrast-enhanced dynamic MRI in mice (CNR in liver and blood); type: in vivo, Balb/C mice; details: i.v. injection, 4.7 T
Protocol: The whole-body pharmacokinetics of T1 contrast agents can be measured by dynamic 2D or 3D MR imaging.
5-Week-old male Balb/C mice (n=3; OrientBio, Korea) were used for contrast-enhanced dynamic MRI. MRI was performed by using a 4.7 T MRI system (BioSpec 47/40; Bruker, Germany) with a quadrature birdcage RF coil (35 mm inner diameter) for signal transmission and reception.
Bolus of the contrast agents (0.1 mmol Gd/kg) was injected via tail vein. During MRI acquisition, the animals were anesthetized using 1-1.25% of inhalational isoflurane with O2:N2O (3:7) mixture.
To quantitatively measure signal intensity in region-of-interests (ROIs) as contrast-noise ratio (CNR), a reference of water sample (1 g/l CuSO4 in 8:2 of D2O:H2O) in a cylindrical tube (5 mm diameter) was used.
Dynamic 2D T1-weighted images were acquired using a spin-echo (SE) pulse sequence with the following parameters: TE/TR=10/400 ms, number of average=4, matrix size=256×256, slice thickness=1 mm, field of view=30×30 mm^2 (in axial slice) or 50×30 mm^2 (in coronal slice), and scan time=6 min 50 s).
Dynamic 3D T1-weighted images were acquired using a fast low angle shot gradient echo (FLASH) pulse sequence with parameters of TE/TR=2.4/7.5 ms, number of average=4, flip angle=30°, field of view=30×30×20 mm^3, matrix size=256×256×128, and scan time=12 min 17 s.

[2] = clinically used commercial T1 contrast agents, comparison values; cited from earlier work
[3] = Relaxivity measurements (r1, r2) in PBS solution; type: physicochemical; details: PBS solution, 36° C.
Protocol: Longitudinal and transverse relaxivities, r1 and r2, were measured at 20 MHz (0.47 T) and 60 MHz (1.41 T) at 36° C. on NMR (mq20 and mq60, Bruker, Germany) and animal MRI (Biospec 47/40, Bruker, Germany) systems. T1 and T2 relaxation times were measured with inversion recovery and spin-echo pulse sequences, respectively.
The relaxation efficiency of the newly synthesized amphiphilic MRI contrast agents according to the present invention was determined by measuring longitudinal relaxivity (r1) and transverse relaxivity (r2) at 20 MHZ (0.47 T) and 60 MHz (1.41 T) in phosphate buffered saline (PBS) solution at 36° C.

Relaxivity r1 ([3]; 20 MHz (0.47 T)): 4.41 mM⁻¹ s⁻¹
Relaxivity r1 ([3]; 60 MHz (1.41 T)): 3.68 mM⁻¹ s⁻¹
SMILES: CNC(=O)CN(CCN(CCN(CC(=O)[O-])CC(=O)NC)CC(=O)[O-])CC(=O)[O-].[Gd+3] [Omniscan ®, Gd-DTPA-BMA, reference compound]
Peak CNR in liver [1]: about 2.8
Relaxivity retained after transmetallation (commercial contrast agents) [2]: 10%
